Patent US9174940B2, “TSH receptor antagonizing tetrahydroquinoline compounds” (Merck Sharp & Dohme B.V., priority 2007, dated 2015)

Columns and labels:
[1] = biological target: T1, human TSH receptor (Homo sapiens (Human), UniProt P16473); experiment: Antagonist activity against bovine TSH at the human TSH receptor in CHO cells under the TSI assay conditions (CRE-luciferase reporter, rolipram); type: cell-based; conditions: stimulated with 18 nM bovine TSH; 10 μM rolipram; CHO cells cultured 16 h without serum
T1 sequence (P16473 21-764): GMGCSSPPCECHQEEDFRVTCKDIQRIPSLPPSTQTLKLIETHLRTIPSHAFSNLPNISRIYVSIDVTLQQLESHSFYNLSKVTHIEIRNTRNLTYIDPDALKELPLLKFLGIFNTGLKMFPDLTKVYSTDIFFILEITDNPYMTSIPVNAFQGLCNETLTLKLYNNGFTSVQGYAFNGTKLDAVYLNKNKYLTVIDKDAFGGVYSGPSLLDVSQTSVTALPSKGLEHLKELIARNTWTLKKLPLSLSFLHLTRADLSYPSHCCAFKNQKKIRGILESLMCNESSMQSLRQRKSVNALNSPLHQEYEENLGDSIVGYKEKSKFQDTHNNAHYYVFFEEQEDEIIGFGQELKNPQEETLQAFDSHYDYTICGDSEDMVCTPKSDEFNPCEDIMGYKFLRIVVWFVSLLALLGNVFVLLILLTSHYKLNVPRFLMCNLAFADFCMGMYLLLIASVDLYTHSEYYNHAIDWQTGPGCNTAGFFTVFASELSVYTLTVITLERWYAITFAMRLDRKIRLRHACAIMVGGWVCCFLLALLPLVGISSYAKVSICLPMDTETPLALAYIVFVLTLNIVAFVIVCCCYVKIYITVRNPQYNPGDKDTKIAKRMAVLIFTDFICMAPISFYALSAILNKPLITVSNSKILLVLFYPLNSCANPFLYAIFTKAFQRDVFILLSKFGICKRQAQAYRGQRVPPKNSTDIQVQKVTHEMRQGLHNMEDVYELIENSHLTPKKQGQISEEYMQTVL

[2] = biological target: T1, human TSH receptor; experiment: Antagonist activity against human TSI at the human TSH receptor expressed in CHO cells (CRE-luciferase reporter, rolipram); type: cell-based; conditions: stimulated with 3.16 mg/ml human TSI; 10 μM rolipram; CHO cells cultured 16 h without serum
[3] = biological target: T1, human TSH receptor; experiment: Antagonist activity against TSH at the human TSH receptor expressed in CHO cells (CRE-luciferase reporter); conditions: together with 18 nM bovine TSH
Experimental: Antagonist activity of the compounds against TSH at the human TSH receptor was tested in Chinese Hamster Ovary (CHO) cells stably transfected with a plasmid encoding the human TSH receptor and a second plasmid with a cAMP responsive element (CRE)/promotor directing the expression of a firefly luciferase reporter gene. Binding of bovine TSH to the Gs-coupled TSH receptor will result in an increase of cAMP, which in turn will induce an increased transactivation of the luciferase reporter. Luciferase activity was quantified using a luminescence counter.

[4] = test system: constitutively active human TSHR mutants (Thr632Ile, Ala623Val, Ile568Thr, Asp619Gly and Asp633Glu); experiment: Antagonist activity at constitutively active human TSH receptors expressed in CHO cells (cAMP Alphascreen); type: cell-based; conditions: 10^−6M compound, 10 μM rolipram, transiently transfected CHO cells
Experimental: Antagonist activity of two compounds was tested in Chinese Hamster Ovary (CHO) cells transiently transfected with a plasmid encoding one of the 5 most prevalent, constitutively active human TSHR mutants (Thr632Ile, Ala623Val, Ile568Thr, Asp619Gly and Asp633Glu) (van Sande et al. (1995) J. Clin. Endocrinol. Metabol. 80, 2577-2585), which have been identified in autonomously functioning thyroid nodules causing hyperthyroidism. The cells were incubated with 10^−6M of either the compound of example 35 or example 1 in the presence of 10 μM rolipram. Activity of the TSH receptor mutants was quantified using a Packard cAMP Alphascreen assay.

Molecule | IC50 [3] | also measured
CC(=O)N1CCC(C)(c2ccccc2)c2cc(NC(=O)OC3CCCC3)ccc21 (single isomer, unassigned; (+)) [Example 39] | – | IC50 [1]: 0.048 µM; IC50 [2]: 0.012 µM
CC(=O)N1CCC(C)(c2ccccc2)c2cc(NC(=O)OCC3(C)CC3)ccc21 (stereo not drawn) [Example 28, (1-Acetyl-4-methyl-4-phenyl-1,2,3,4-tetrahydro-quinolin-6-yl)-carbamic acid 1-methyl-cyclopropylmethyl ester] | < 0.1 µM | –
CC(=O)N1CCC(C)(c2ccccc2)c2cc(NC(=O)OCc3ccc(F)c(Cl)c3)ccc21 (single isomer, unassigned; (+)) [Example 40, (+)-(1-Acetyl-4-methyl-4-phenyl-1,2,3,4-tetrahydro-quinolin-6-yl)-carbamic acid 3-chloro-4-fluoro-benzyl ester] | – | IC50 [1]: 0.192 µM; IC50 [2]: 0.047 µM
CC(=O)N1CCC(C)(c2ccccc2)c2cc(NC(=O)OCCC(C)C)ccc21 (stereo not drawn) [Example 27, (1-Acetyl-4-methyl-4-phenyl-1,2,3,4-tetrahydro-quinolin-6-yl)-carbamic acid 3-methyl-butyl ester] | < 0.1 µM | –
CC(=O)N1CCC(C)(c2ccccc2)c2cc(NC(=O)c3ccc(Br)s3)ccc21 (stereo not drawn) [Example 35, 5-Bromo-thiophene-2-carboxylic acid (1-acetyl-4-methyl-4-phenyl-1,2,3,4-tetrahydro-quinolin-6-yl)-amide] | – | inhibition of constitutive activity of all 5 receptor mutants [4]: > 80%
CCCCCC(=O)Nc1ccc2c(c1)C(C)(c1ccccc1)CC(C)(C)N2C(C)=O (stereo not drawn) [Example 1, Hexanoic acid (1-acetyl-2,2,4-trimethyl-4-phenyl-1,2,3,4-tetrahydro-quinolin-6-yl)-amide] | < 0.1 µM | IC50 [1]: 0.368 µM; IC50 [2]: 0.088 µM; inhibition of constitutive activity of all 5 receptor mutants [4]: > 80%
CC(=O)N1CCC(C)(c2ccccc2)c2cc(NC(=O)OCC3CCC3)ccc21 (stereo not drawn) [Example 29, (1-Acetyl-4-methyl-4-phenyl-1,2,3,4-tetrahydro-quinolin-6-yl)-carbamic acid cyclobutylmethyl ester] | < 0.1 µM | –
CC(=O)N1CCC(C)(c2ccccc2)c2cc(NC(=O)OCc3ccc(F)c(Cl)c3)ccc21 (stereo not drawn) [Example 34, (1-Acetyl-4-methyl-4-phenyl-1,2,3,4-tetrahydro-quinolin-6-yl)-carbamic acid 3-chloro-4-fluoro-benzyl ester] | < 0.1 µM | –
CC(=O)N1c2ccc(NC(=O)c3ccccn3)cc2C(C)(c2ccccc2)CC1(C)C (stereo not drawn) [Example 4, Pyridine-2-carboxylic acid (1-acetyl-2,2,4-trimethyl-4-phenyl-1,2,3,4-tetrahydro-quinolin-6-yl)-amide] | < 0.1 µM | –

Further lines, with some results ahead:

IC50 [3] | Molecule | also measured
< 0.1 µM | (1-Acetyl-4-methyl-4-phenyl-1,2,3,4,4a,8a-hexahydro-quinolin-6-yl)-carbamic acid cyclopentyl ester [Example 32] | –
< 0.1 µM | CCCCOC(=O)Nc1ccc2c(c1)C(C)(c1ccccc1)CC(C)(C)N2C(C)=O (stereo not drawn) [Example 7, (1-Acetyl-2,2,4-trimethyl-4-phenyl-1,2,3,4-tetrahydro-quinolin-6-yl)-carbamic acid butyl ester] | –
< 0.1 µM | CC(=O)N1c2ccc(NC(=O)OCCOc3ccccc3)cc2C(C)(c2ccccc2)CC1(C)C (stereo not drawn) [Example 6, (1-Acetyl-2,2,4-trimethyl-4-phenyl-1,2,3,4-tetrahydro-quinolin-6-yl)-carbamic acid 2-phenoxy-ethyl ester] | –
< 0.1 µM | CC(=O)N1c2ccc(NC(=O)CCc3cccc(Cl)c3)cc2C(C)(c2ccccc2)CC1(C)C (stereo not drawn) [Example 26, N-(1-Acetyl-2,2,4-trimethyl-4-phenyl-1,2,3,4-tetrahydro-quinolin-6-yl)-3-(3-chloro-phenyl)-propionamide] | –
